Drawing on US20240270821A1, “GIP/GLP1/GCG TRI-RECEPTOR AGONISTS AND USES THEREOF” (priority 2023, published 2024), this text covers EC50 for 15 compounds.

Holding throughout (type): cell-based
The target of assay [1] is T1, hGIPR (Homo sapiens, UniProt P48546).
T1 sequence (P48546 22-466): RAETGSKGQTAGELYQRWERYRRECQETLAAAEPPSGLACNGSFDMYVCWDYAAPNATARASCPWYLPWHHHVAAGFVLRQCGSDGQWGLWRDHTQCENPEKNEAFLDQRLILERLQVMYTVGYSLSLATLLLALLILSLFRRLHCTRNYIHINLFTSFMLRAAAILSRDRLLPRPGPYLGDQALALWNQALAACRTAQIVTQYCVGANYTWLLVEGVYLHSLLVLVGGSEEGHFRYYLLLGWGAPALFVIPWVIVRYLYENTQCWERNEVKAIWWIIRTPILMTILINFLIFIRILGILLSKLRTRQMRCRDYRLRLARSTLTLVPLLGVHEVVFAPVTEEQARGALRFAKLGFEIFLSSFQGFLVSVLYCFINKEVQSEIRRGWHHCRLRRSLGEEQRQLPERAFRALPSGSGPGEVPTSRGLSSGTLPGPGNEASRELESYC
Put plainly: Functional cAMP activation in the presence of 0.1% casein (no HSA). Particulars: read-out: Relative cAMP EC50, hGIPR.
Method: After a 30-minute incubation at 37° C., the resulting increase in intracellular cAMP is quantitatively determined using the CisBio CAMP Dynamic 2 HTRF Assay Kit (62AM4PEJ). Briefly, cAMP levels within the cell are detected by adding the cAMP-d2 conjugate in cell lysis buffer followed by the antibody anti-cAMP-Eu^3+-Cryptate, also in cell lysis buffer.
Intracellular cAMP levels are determined by extrapolation using a standard curve. Dose response curves of compounds are plotted as the percentage of stimulation normalized to minimum (buffer only) and maximum (maximum concentration of each control ligand) values and analyzed using a four parameter non-linear regression fit with a variable slope (Genedata Screener 13). EC50 is the concentration of compound causing half-maximal simulation in a dose response curve. Each relative EC50 value for the Geometric mean calculation is determined from a curve fitting.

The target of a further assay is hGcgR (Homo sapiens, UniProt P47871). The assay is described as above. The following applies: read-out: Relative cAMP EC50, hGcgR.
Chain of hGcgR (P47871 26-477): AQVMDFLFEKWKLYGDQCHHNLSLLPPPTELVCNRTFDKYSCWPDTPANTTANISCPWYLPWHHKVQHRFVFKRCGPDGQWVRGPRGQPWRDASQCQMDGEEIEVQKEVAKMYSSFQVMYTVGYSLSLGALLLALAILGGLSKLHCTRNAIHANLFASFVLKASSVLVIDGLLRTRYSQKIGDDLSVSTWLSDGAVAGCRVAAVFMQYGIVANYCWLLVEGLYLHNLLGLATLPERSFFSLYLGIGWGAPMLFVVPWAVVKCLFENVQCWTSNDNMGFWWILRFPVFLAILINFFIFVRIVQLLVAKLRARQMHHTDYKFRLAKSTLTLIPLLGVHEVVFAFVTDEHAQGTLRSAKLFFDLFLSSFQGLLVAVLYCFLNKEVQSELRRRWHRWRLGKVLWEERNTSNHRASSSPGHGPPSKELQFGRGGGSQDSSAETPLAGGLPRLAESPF
Assay [2] addresses T2, hGLP-1R (Homo sapiens, UniProt P43220). The description is as above. The following applies: read-out: Relative cAMP EC50, hGLP-1R.
The target of assay [3] is T1, hGIPR. Nature of the assay: Functional cAMP activity in the presence of 1% HSA. The following applies: read-out: cAMP Rel EC50, hGIPR.
In another assay the target is human GcgR (Homo sapiens, UniProt P47871). Nature of the assay: Functional cAMP activity in the presence of 1% HSA. Particulars: read-out: cAMP Rel EC50, hGcgR.
Chain of human GcgR (P47871 26-477): as above
Assay [4] has as its target T2, hGLP-1R. Put plainly: Functional cAMP activity in the presence of 1% HSA. The following applies: read-out: cAMP Rel EC50, hGLP-1R.
The mark [5] stands for this setting: in the presence of 0.1% casein (no HSA), geometric mean.
[6] abbreviates: HEK-293 clonal cell line, in the presence of 1% HSA, geometric mean of relative EC50.
The mark [7] stands for this setting: 0.1% casein, no HSA, geometric mean.
[8] abbreviates: in the presence of 0.1% casein (no HSA), geometric mean of relative EC50.
[9] abbreviates: HEK-293 clonal cell line, 1% HSA, geometric mean of relative EC50.

Like-named read-outs stand apart in the source and are kept apart here. Starred links: 1 amine or outer side, 2 acyl side, 3 side chain; linkers in the order of their positions; H or OH if unused. Non-standard residues stand in square brackets, D forms with d. Residues, ends and D or L forms follow the SMILES beside them. Groups on a side chain read outwards from the residue. No end group written: not given here. *: point of attachment. C20 diacid = O=C(O)CCCCCCCCCCCCCCCCCCC(=O)*; C18 diacid = O=C(O)CCCCCCCCCCCCCCCCC(=O)*; αMePhe(2-F) = C[C@](N)(Cc1ccccc1F)C(=O)O; γGlu = O=C(O)[C@H](CCC(=O)[*:2])N[*:1]; αMe4Pal = C[C@](N)(Cc1ccncc1)C(=O)O; αMeY = C[C@](N)(Cc1ccc(O)cc1)C(=O)O; 4Pal = N[C@@H](Cc1ccncc1)C(=O)O; αMeL = CC(C)C[C@](C)(N)C(=O)O; αMeS = C[C@](N)(CO)C(=O)O; Orn = NCCC[C@H](N)C(=O)O; AEEA = NCCOCCOCC(=O)O; Aib = CC(C)(N)C(=O)O

What is called EC50 is the concentration at which the effect is half-maximal.
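Throughout, for Relative cAMP EC50, hGIPR: intracellular cAMP rise after 30 min at 37 °C read by HTRF against a standard curve, scaled between buffer alone (0%) and top control ligand concentration (100%), four-parameter fit.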
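Throughout, for Relative cAMP EC50, hGLP-1R: intracellular cAMP rise after 30 min at 37 °C read by HTRF, normalized between buffer only (0%) and maximal control ligand (100%), four-parameter variable-slope fit.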
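Throughout, for Relative cAMP EC50, hGcgR: intracellular cAMP rise after 30 min at 37 °C, read by HTRF against a cAMP standard curve, scaled from buffer only (0%) to maximal control ligand response (100%).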

T2 sequence (P43220 24-463): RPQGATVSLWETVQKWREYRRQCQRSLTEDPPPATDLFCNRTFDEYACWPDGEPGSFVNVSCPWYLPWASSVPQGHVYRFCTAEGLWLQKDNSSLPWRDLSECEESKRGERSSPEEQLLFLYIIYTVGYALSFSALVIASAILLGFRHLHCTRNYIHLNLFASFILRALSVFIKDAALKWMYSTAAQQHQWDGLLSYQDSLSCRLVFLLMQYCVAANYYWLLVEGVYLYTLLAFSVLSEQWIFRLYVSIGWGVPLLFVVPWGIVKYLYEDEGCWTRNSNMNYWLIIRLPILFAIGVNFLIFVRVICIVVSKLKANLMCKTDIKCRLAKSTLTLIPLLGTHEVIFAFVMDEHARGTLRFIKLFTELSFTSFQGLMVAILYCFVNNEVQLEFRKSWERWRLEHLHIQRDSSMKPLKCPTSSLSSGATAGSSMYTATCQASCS

For `CC[C@H](C)[C@H](NC(=O)[C@H](Cc1ccccc1)NC(=O)[C@H](CCCN)NC(=O)C(C)(C)NC(=O)[C@H](CCC(N)=O)NC(=O)[C@H](C)NC(=O)[C@H](CCCCNC(=O)CC[C@H](NC(=O)CC[C@H](NC(=O)CCCCCCCCCCCCCCCCC(=O)O)C(=O)O)C(=O)O)NC(=O)[C@H](CCCN)NC(=O)[C@H](CC(=O)O)NC(=O)[C@H](CC(C)C)NC(=O)[C@](C)(CC(C)C)NC(=O)[C@@H](NC(=O)[C@](C)(CO)NC(=O)[C@H](Cc1ccncc1)NC(=O)[C@H](CC(=O)O)NC(=O)[C@H](CO)NC(=O)[C@@H](NC(=O)[C@](C)(Cc1ccccc1F)NC(=O)[C@@H](NC(=O)CNC(=O)[C@H](CCC(N)=O)NC(=O)C(C)(C)NC(=O)[C@@H](N)Cc1ccc(O)cc1)[C@@H](C)O)[C@@H](C)O)[C@@H](C)CC)C(=O)N[C@H](CCC(=O)O)C(=O)N[C@@](C)(Cc1ccc(O)cc1)C(=O)N[C@@H](CC(C)C)C(=O)N[C@@H](C)C(=O)N[C@@H](CCC(=O)O)C(=O)NCC(=O)NCC(=O)N1CCC[C@H]1C(=O)N[C@@H](CO)C(=O)N[C@@H](CO)C(=O)NCC(=O)N[C@@H](CCC(=O)O)C(=O)N1CCC[C@H]1C(=O)N1CCC[C@H]1C(=O)N1CCC[C@H]1C(=O)N[C@@H](CCC(=O)O)C(N)=O` [Example 437] (H-Y[Aib]QGT[αMePhe(2-F)]TSD[4Pal][αMeS]I[αMeL]LD[Orn]K([γGlu-γGlu-C18 diacid])AQ[Aib][Orn]FI[dE][αMeY]LAEGGPSSGEPPPE-NH2), the EC50 was determined as 0.0872 nM at hGIPR [1]; 1.76 nM at hGcgR; 0.421 nM at hGLP-1R [2]; 16.9 nM at hGIPR [3]; 188 nM at human GcgR; 26.9 nM at hGLP-1R [4].
In the case of “H-Y[Aib]QGTFTSDFS[Orn][αMeL]LD[Orn]K([γGlu-γGlu-C18 diacid])AQ[Aib]AFIEYLLEGGPSSGAPPPGGSEE-NH2 [Example 1048]”, the EC50 is 0.356 nM on hGIPR [1] (setting [5]); 6.9 nM on hGcgR (setting [5]); 6.23 nM at hGLP-1R [2] (setting [5]); 108 nM at hGIPR [3] (setting [6]); 1930 nM at human GcgR (setting [6]); 1900 nM on hGLP-1R [4] (setting [6]).
As for “H-Y[Aib]QGTFTSDFSK[αMeL]LDKK([AEEA-AEEA-γGlu-C18 diacid])AQ[Aib]AFIEYLLEGGESSGAPPPSGS-NH2 [Example 147]”, the EC50 at hGIPR [1] (setting [5]) was determined as 0.343 nM; on hGcgR (setting [5]), 4.39 nM; at hGLP-1R [2] (setting [5]), 4.26 nM; on hGIPR [3], 108 nM; at human GcgR, 877 nM; at hGLP-1R [4], 964 nM.
As to “H-Y[Aib]QGTFTSDYSK[αMeL]LDKK([AEEA-γGlu-C20 diacid])AQQAFIEYLIAGGPSSGEPPPSGD-NH2 [Example 337]”, the EC50 at hGIPR [1] (setting [5]) turned out to be 0.332 nM; at hGcgR (setting [5]) it was 5.95 nM; on hGLP-1R [2] (setting [5]), 0.686 nM; at hGIPR [3], 99.1 nM; on human GcgR, 2950 nM; on hGLP-1R [4], 272 nM.
In the case of “H-Y[Aib]QGTFTSD[4Pal]SQ[αMeL]LD[Orn]K([γGlu-γGlu-C18 diacid])AQ[αMe4Pal]AFIEYLIE[dA]GPSSGEPPPSGS-NH2 [Example 1019]”, the EC50 at hGIPR [1] (setting [5]) came out at 0.169 nM; on hGcgR (setting [5]), 4.36 nM; at hGLP-1R [2] (setting [5]), 1.33 nM; on hGIPR [3], 21.3 nM; on human GcgR, 579 nM; on hGLP-1R [4], 161 nM.
“H-Y[Aib]QGT[αMePhe(2-F)]TSD[4Pal][αMeS]I[αMeL]LD[Orn]K([AEEA-γGlu-C18 diacid])AQ[αMe4Pal]EFI[dE][αMeY]LVEGGPSSGEPPPSGE-NH2 [Example 750]”: the EC50 at hGIPR [1] was found to be 0.00784 nM; at hGcgR, 2 nM; on hGLP-1R [2], 0.302 nM; at hGIPR [3] it was 1.34 nM; on human GcgR, 205 nM; at hGLP-1R [4] it was 39.1 nM.
“Y[Aib]QGT[αMePhe(2-F)]TSD[4Pal][αMeS]I[αMeL]LD[Orn]K([γGlu-γGlu-C18 diacid])AQ[αMe4Pal]EFI[dE][αMeY]LIEGGPSSGAPPPEGGGEEE-NH2 [Example 1221]”: the EC50 at hGIPR [1] (setting [7]) is 0.0111 nM; on hGcgR (setting [7]), 2.27 nM; at hGLP-1R [2] (setting [7]) it was 0.839 nM; at hGIPR [3] it was 0.814 nM; at human GcgR it was 185 nM; on hGLP-1R [4], 57.8 nM.
As for “Y[Aib]QGTFTSD[4Pal]SQ[αMeL]LDKK([AEEA-γGlu-C18 diacid])AQ[Aib]AFIE[αMeY]LIEGGPSSGAPPPSGS-NH2 [Example 838]”, the EC50 was 0.225 nM on hGIPR [1] (setting [5]); 20.7 nM at hGcgR (setting [5]); 0.379 nM at hGLP-1R [2] (setting [5]); 23.2 nM at hGIPR [3]; 3070 nM at human GcgR; 72.2 nM at hGLP-1R [4].
With “H-Y[Aib]QGT[αMePhe(2-F)]TSD[4Pal][αMeS]I[αMeL]LD[Orn]K([AEEA-γGlu-γGlu-C18 diacid])AQ[αMe4Pal]EFI[dE][αMeY]LIEGGPSSGEPPPSGGGE-NH2 [Example 1181]”, the EC50 on hGIPR [1] (setting [5]) came to 0.0115 nM; on hGcgR (setting [5]) it was 3.34 nM; on hGLP-1R [2] (setting [5]), 0.664 nM; on hGIPR [3], 0.666 nM; on human GcgR it was 203 nM; on hGLP-1R [4], 48.2 nM.
Turning to “H-Y[Aib]QGTFTSD[4Pal]SQ[αMeL]LDKK([AEEA-γGlu-γGlu-C18 diacid])AQ[αMe4Pal]AFIEYLIAGGPSSGEPPPSGS-NH2 [Example 947]”, the EC50 on hGIPR [1] (setting [5]) is 0.289 nM; at hGcgR (setting [5]), 6.99 nM; on hGLP-1R [2] (setting [5]), 1.7 nM; on hGIPR [3] it was 16.6 nM; on human GcgR, 727 nM; on hGLP-1R [4], 150 nM.
Turning to “Y[Aib]QGT[αMePhe(2-F)]TSD[4Pal]SI[αMeL]LD[Orn]K([AEEA-γGlu-C18 diacid])AQ[αMe4Pal][Orn]FI[dE][αMeY]LIEGGPSSGEPPPEGEG[dE]-NH2 [Example 692]”, the EC50 came out at 0.0106 nM on hGIPR [1] (setting [8]); 2.14 nM at hGcgR (setting [8]); 0.252 nM at hGLP-1R [2] (setting [8]); 1.25 nM at hGIPR [3] (setting [9]); 380 nM on human GcgR (setting [9]); 25.2 nM on hGLP-1R [4] (setting [9]).
Regarding “H-Y[Aib]QGTFTSDFSK[αMeL]LDKK([AEEA-γGlu-C18 diacid])AQ[Aib]AFIEYLIE[Aib]SPSSGAPPPSGS-NH2 [Example 805]”, the EC50 on hGIPR [1] (setting [5]) stood at 0.0875 nM; at hGcgR (setting [5]), 3.97 nM; at hGLP-1R [2] (setting [5]), 0.715 nM; on hGIPR [3], 13 nM; at human GcgR, 1210 nM; at hGLP-1R [4], 146 nM.
Turning to “Y[Aib]QGTFTSDFSK[αMeL]LDKK([AEEA-γGlu-C18 diacid])AQ[Aib]AFIEYLIE[Aib]GPSSGAPPPSGS-NH2 [Example 797]”, the EC50 on hGIPR [1] (setting [5]) turned out to be 0.0781 nM; at hGcgR (setting [5]), 3.78 nM; on hGLP-1R [2] (setting [5]), 0.449 nM; on hGIPR [3], 16.7 nM; on human GcgR it was 963 nM; on hGLP-1R [4] it was 102 nM.
As for “Y[Aib]QGT[αMePhe(2-F)]TSD[4Pal]SILLDKK([γGlu-γGlu-C18 diacid])AQ[Aib]AFIEYLQEGGPSSGAPPPSGTEE-NH2 [Example 580]”, the EC50 at hGIPR [1] was determined as 0.0426 nM; on hGcgR it was 7.27 nM; at hGLP-1R [2], 0.615 nM; on hGIPR [3], 6.29 nM; on human GcgR, 922 nM; at hGLP-1R [4] it was 55.3 nM.
“H-Y[Aib]QGT[αMePhe(2-F)]TSD[4Pal][αMeS]ILLD[Orn]K([γGlu-γGlu-C18 diacid])AQ[Aib][Orn]FI[dE][αMeY]LQEGGPSSGEPPPSGAEE-NH2 [Example 575]”: the EC50 on hGIPR [1] came out at 0.321 nM; at hGcgR, 3.69 nM; at hGLP-1R [2] it was 0.438 nM; on hGIPR [3], 16.2 nM; at human GcgR, 484 nM; at hGLP-1R [4], 37.1 nM.
